Assay results: PMC8655237 (Journal of Advanced Research, 2021)

Key:
DHFR mRNA = assay: Real-time qPCR expression analysis; format: cell-based, human; conditions: A549, with respect to control, GAPDH internal control
PC-3 [1] = assay: MTT antiproliferative assay; format: cell-based; conditions: Homo sapiens, PC-3, 24 h, read-out: IC50 (MTT)
COX-2 = target: T1, COX-2 (Homo sapiens, UniProt P35354); assay: COX-2 assay, cell-free; format: biochemical
T1 sequence (P35354 18-604): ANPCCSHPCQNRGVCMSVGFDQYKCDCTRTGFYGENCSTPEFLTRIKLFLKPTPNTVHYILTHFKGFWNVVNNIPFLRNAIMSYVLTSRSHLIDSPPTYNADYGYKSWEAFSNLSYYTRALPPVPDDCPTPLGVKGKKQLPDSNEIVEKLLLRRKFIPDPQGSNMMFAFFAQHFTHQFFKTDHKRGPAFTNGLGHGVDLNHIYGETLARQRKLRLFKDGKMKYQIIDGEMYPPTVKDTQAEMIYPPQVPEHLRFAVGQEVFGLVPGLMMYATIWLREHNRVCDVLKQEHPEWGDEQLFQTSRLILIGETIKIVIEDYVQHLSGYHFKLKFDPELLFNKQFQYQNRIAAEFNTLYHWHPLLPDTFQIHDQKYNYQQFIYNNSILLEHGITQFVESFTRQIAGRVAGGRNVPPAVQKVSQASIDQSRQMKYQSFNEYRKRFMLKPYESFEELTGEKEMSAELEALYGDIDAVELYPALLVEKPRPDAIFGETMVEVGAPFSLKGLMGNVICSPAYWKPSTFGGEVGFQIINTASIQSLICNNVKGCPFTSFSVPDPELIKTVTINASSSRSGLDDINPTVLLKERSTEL

A431 cells = assay: Mitochondrial membrane potential; format: cell-based, human; conditions: for total of FITC mean (Rh123): A431, flow cytometry
ODC mRNA = assay: Real-time qPCR expression analysis; format: cell-based, human; conditions: GAPDH internal control
HDAC-6 = HDAC-6 quantification by ELISA in A431 cells; format: cell-based, human; conditions: A431, 100 µM, 24 h
[2] = target: T2, Ornithine decarboxylase (ODC) (Homo sapiens, UniProt P11926); assay: ODC assay, cell-based; conditions: for IC50: IC50 ODC, cell based
T2 sequence (P11926 1-461): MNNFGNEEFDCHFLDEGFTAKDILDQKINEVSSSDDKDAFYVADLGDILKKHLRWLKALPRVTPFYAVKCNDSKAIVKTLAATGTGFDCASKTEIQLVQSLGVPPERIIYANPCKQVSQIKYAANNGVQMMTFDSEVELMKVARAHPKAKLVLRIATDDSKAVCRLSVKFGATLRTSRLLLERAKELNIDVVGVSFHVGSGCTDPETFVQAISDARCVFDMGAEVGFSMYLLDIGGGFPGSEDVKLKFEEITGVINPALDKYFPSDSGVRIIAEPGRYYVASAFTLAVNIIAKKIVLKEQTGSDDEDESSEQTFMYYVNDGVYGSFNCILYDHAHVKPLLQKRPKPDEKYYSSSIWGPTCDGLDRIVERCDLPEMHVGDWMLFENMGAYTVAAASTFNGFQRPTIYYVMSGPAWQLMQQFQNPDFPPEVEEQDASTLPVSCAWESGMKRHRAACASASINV

PI3K = PI3K quantification by ELISA in A431 cells; format: cell-based, human; conditions: A431, 100 µM, 24 h
human erythrocytes = assay: Ex vivo osmotic fragility test; conditions: 100 μM
PC-3 [3] = assay: SRB antiproliferative assay; format: cell-based; conditions: Homo sapiens, PC-3, 24 h, read-out: IC50 (SRB)
hyaluronidase = assay: Hyaluronidase activity in EAC cells of treated mice; format: in vivo; conditions: 75 mg/kg bw, i.p.
[4] = tested on: Ornithine decarboxylase (ODC); assay: ODC assay, cell-free; format: biochemical; conditions: read-out: IC50 ODC; cell free (In vitro)
FaDu = assay: Cell cycle analysis by flow cytometry; format: cell-based, human; conditions: 24 h
Cathepsin D (CATD) = Cathepsin D (CATD) (Homo sapiens, UniProt P07339); assay: Cathepsin D assay, cell-free
Chain of Cathepsin D (CATD) (P07339 65-412): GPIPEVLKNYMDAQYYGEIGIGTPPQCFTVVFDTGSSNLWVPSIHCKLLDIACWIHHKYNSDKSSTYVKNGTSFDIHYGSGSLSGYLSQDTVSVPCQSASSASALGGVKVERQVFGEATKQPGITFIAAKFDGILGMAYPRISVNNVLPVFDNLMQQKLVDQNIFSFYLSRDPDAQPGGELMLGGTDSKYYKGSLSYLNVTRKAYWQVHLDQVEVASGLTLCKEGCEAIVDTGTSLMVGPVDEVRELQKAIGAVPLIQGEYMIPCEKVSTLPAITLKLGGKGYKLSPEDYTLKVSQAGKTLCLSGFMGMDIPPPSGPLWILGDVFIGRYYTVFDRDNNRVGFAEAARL

A431 [5] = assay: NRU antiproliferative assay; format: cell-based; conditions: Homo sapiens, A-431, 24 h, read-out: IC50 (NRU)
PC-3 [6] = assay: Cell cycle analysis by flow cytometry; format: cell-based, human; conditions: PC-3, 24 h
A431 [7] = assay: Cell cycle analysis by flow cytometry; format: cell-based, human; conditions: A431, 24 h
COX-2 mRNA = assay: Real-time qPCR expression analysis; format: cell-based, human; conditions: GAPDH internal control
[8] = tested on: Ehrlich Ascites Carcinoma (EAC); assay: Ehrlich ascites carcinoma; format: in vivo, Swiss albino mice; conditions: for reduction of EAC tumor cells (tumor growth inhibition): day 1-9
hyaluronidase (HYAL) = assay: Hyaluronidase assay, cell-free; format: biochemical; conditions: cell-free system
PC-3 [9] = assay: NRU antiproliferative assay; format: cell-based; conditions: Homo sapiens, PC-3, 24 h, read-out: IC50 (NRU)
A549 = assay: Cell cycle analysis by flow cytometry; format: cell-based, human; conditions: A549, 24 h
AKT = AKT quantification by ELISA in A431 cells; format: cell-based, human; conditions: A431, 100 µM, 24 h
A431 [10] = assay: SRB antiproliferative assay; format: cell-based; conditions: Homo sapiens, A-431, 24 h, read-out: IC50 (SRB)
LOX-5 = LOX-5 (Homo sapiens, UniProt P09917); assay: LOX-5 assay, cell-based; conditions: IC50 LOX-5, cell based, K562
Chain of LOX-5 (P09917 whole entry): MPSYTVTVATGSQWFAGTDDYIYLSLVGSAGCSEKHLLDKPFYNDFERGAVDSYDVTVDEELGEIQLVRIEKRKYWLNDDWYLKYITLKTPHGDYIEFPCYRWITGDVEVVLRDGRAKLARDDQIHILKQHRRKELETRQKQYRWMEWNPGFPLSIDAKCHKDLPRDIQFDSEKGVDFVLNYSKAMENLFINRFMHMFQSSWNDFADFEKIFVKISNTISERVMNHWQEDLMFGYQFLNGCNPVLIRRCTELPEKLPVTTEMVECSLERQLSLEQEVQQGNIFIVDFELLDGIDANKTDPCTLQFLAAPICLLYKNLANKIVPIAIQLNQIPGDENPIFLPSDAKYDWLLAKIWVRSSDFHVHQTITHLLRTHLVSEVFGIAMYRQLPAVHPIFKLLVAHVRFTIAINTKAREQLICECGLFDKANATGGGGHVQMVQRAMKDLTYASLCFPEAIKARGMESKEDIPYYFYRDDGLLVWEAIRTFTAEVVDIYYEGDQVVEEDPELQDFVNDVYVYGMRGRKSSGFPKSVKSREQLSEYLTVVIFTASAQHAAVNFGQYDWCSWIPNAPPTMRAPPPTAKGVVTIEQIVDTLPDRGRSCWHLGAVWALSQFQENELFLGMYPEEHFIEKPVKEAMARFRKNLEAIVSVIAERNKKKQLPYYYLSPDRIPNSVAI

Acute oral toxicity = format: in vivo, Swiss albino mice; conditions: up to 1000 mg/kg body weight
[11] = MDA-MB-231, with respect to control

## CC(C)[C@@H]1CC[C@@H](C)C[C@@H]1O [neomenthol, (+)-Neomenthol]
DHFR mRNA
  DHFR mRNA expression level: 1.17 fold change
PC-3 [1]
  IC50: 20.1 ± 0.82 µM
COX-2
  IC50: 81.01 ± 0.59 µM
A431 cells; 10 µM
  total of FITC mean (Rh123): 3101 ± 1.41
A431 cells; 100 µM
  total of FITC mean (Rh123): 2913 ± 1.41
A431 cells; A431, highest concentration, 24 h, spectrofluorometer
  percent decrease of mitochondrial membrane potential concerning control: 13.05 ± 2.6%
ODC mRNA; A431, with respect to control
  ODC mRNA expression level: 1.15 fold change
ODC mRNA; A549, with respect to control
  ODC mRNA expression level: 1.18 fold change
ODC mRNA; FaDu, with respect to control
  ODC mRNA expression level: 1.08 fold change
ODC mRNA; [11]
  ODC mRNA expression level: 1.05 fold change
ODC mRNA; PC-3, with respect to control
  ODC mRNA expression level: 1.22 fold change
HDAC-6
  HDAC-6 level (ng/mg of protein): 0.104 ± 0.001 ng/mg
[2]; A549, PC-3, A431, and FaDu cell lines
  percent inhibition of ODC: below 50%
[2]; K562
  IC50: 29.6 ± 2.54 µM
[2]; MDA-MB-231
  IC50: 57.2 ± 2.84 µM
PI3K
  PI3K level (ng/mg of protein): 0.006 ± 0.00021 ng/mg
Human erythrocytes
  toxicity to erythrocytes (osmotic fragility): non-toxic to erythrocytes
PC-3 [3]
  IC50: 16.4 ± 3.87 µM
hyaluronidase
  inhibition (modulation) of hyaluronidase activity in EAC cells of mice: up to 10%
[4]
  IC50: 20.2 ± 1.09 µM
FaDu
  cell cycle phase arrested: G2/M phase
Cathepsin D (CATD)
  IC50: 30.4 ± 6.44 µM
A431 [5]
  IC50: 18.5 ± 3.66 µM
PC-3 [6]
  cell cycle phase arrested: arrest of the G0/G1 phase
A431 [7]
  cell cycle phase arrested: G2/M phase
COX-2 mRNA; A431, with respect to control
  COX-2 mRNA expression level: 1.34 fold change
COX-2 mRNA; A549, with respect to control
  COX-2 mRNA expression level: 1.09 fold change
COX-2 mRNA; FaDu, with respect to control
  COX-2 mRNA expression level: 1.38 fold change
COX-2 mRNA; [11]
  COX-2 mRNA expression level: 1.16 fold change
COX-2 mRNA; PC-3, with respect to control
  COX-2 mRNA expression level: 1.19 fold change
[8]; 50 mg/kg bw i.p.
  reduction of EAC tumor cells (tumor growth inhibition): 23.98%
[8]; 75 mg/kg body weight
  survival rate higher compared to EAC harbored mice: 17%
[8]; 75 mg/kg body weight, untreated EAC mice died within 24 days
  survival of EAC harbored mice (survived till): 27 days
[8]; 75 mg/kg bw i.p.
  reduction of EAC tumor cells (tumor growth inhibition): 58.84%
Hyaluronidase (HYAL)
  inhibition of hyaluronidase enzyme activity: 24.9 ± 4.31%
PC-3 [9]
  IC50: 84.6 ± 1.81 µM
A549
  cell cycle phase arrested: G2/M phase
AKT
  AKT level (ng/mg of protein): 0.125 ± 0.004 ng/mg
A431 [10]
  IC50: 82.1 ± 1.97 µM
LOX-5
  IC50: 72.2 ± 2.19 µM
Acute oral toxicity
  acute oral toxicity outcome: safe and non-toxic
